Measured values from a melting point compilation (Tetko et al.; mined from patent text by program, amines drawn as free bases though some values may be those of a salt).

melting point [°C]	Structure (SMILES)
212 to 214	CCOCc1nc2c(N)nc3cc(-c4cncc(CO)c4)cnc3c2n1CC(C)(C)O
260 to 263	CCOP(=O)(Cc1nnc2c(=O)[nH]c3cc(C(F)(F)F)c(N)cc3n12)OCC
158	CCOCCOc1cc(C(O)C#Cc2ccc(C(=O)O)cc2)cc2c1C(C)(C)CCC2(C)C (configuration not stated)
207 to 208	Cc1cc(C(=O)N(C)C)ncc1C(c1cc(F)ccc1F)S(=O)(=O)c1ccc(Cl)cc1 (configuration not stated)
195 to 197	CCS(=O)(=O)c1ccc(-c2nc(-c3nc4cc(OC)cc(OC)c4c(=O)[nH]3)ccc2OCCNC(C)C)cc1
162 to 163	Cc1cccc(C2=NN=C(c3ccccc3Cc3ccccc3)NN2)c1
145 to 146	CCC(=O)C(O)(Cc1ccc(Cl)cc1Cl)c1cccnc1 (configuration not stated)
150 to 151	CNC(=O)c1cc(-c2ccc(OC)cc2)nn(C)c1=O
76 to 78	CCCc1c(OCCCCCC(=O)NCCc2cccnc2)ccc(C(C)=O)c1O
242 to 244	Nc1nc(NCCN2CCOCC2)nc2nc(-c3ccco3)nn12
94 to 95	COc1cccc(CC(=O)O)c1OCCCc1cn(-c2ccc(C(F)(F)F)cn2)nc1C(C)(C)C
169	CCCC1=C(C(=O)OCC)C(c2ccccc2OC)c2c[nH]nc2N1 (configuration not stated)
86.3 to 87.9	COP(=O)(Cc1nc2cc3c(cc2nc1C(=O)OC(C)(C)C)OC(C)(C)O3)OC
158 to 162	N#Cc1ccc(-c2ccc(OC3SCC(O)C(O)C3O)c(F)n2)cn1 (configuration not stated)
158 to 162	Cc1c(CCN(C)C(=O)OC(C)(C)C)c2cc(S(=O)(=O)c3cc(F)cc(F)c3)ccc2n1C
225 to 226	Nc1cc(-n2cc(C(=O)O)c(=O)c3cc(F)c(F)c(Cl)c32)c(F)cc1F
183 to 185	Cc1sc2c(Br)c3ccccc3c(-c3ccc(O)c([N+](=O)[O-])c3)c2c1C
60.5 to 61.5	C=CCON=C(CC)C1=C(OCc2ccccc2)CC(C)(C)CC1=O
194 to 195	CCOc1ccccc1CNC(=O)[C@@H]1CCCN(c2cccc3c2C(=O)N(Cc2ccncc2)C3=O)C1
148 to 149	CCOC(=O)C(C=O)Cc1cnc(C)c(C)c1 (configuration not stated)
158 to 161	CCOC(=N)c1ccc(-c2cc3ncn([C@H](C)[C@](O)(Cn4cncn4)c4ccc(F)cc4F)c(=O)c3s2)cc1
244	Cc1ccc(C)n1-c1cc2[nH]c(=O)c(=O)n(CC(=O)NCc3ccccc3)c2cc1Cl
195 to 197	O=S(=O)(Nc1ccc2c(OCc3coc(-c4ccccc4)n3)cccc2c1)C(F)(F)F
191 to 193	Cc1cc(O)ccc1-c1ccc2cc(O)ccc2c1
233 to 237	CNc1nc(N)ncc1-c1cccc(Cl)c1Cl
30	CCOC(=O)C(Cc1cccc2ccccc12)C(=O)OCC
101 to 103	O=c1c(Cl)coc2cc(OCCCCl)ccc12
157 to 159	CCCc1nc(C(C)(O)CC)c(C#N)[nH]1 (configuration not stated)

Continued, compound first:

Structure (SMILES)	melting point [°C]
O=C(O)C1Oc2cc3onc(-c4ccccc4)c3cc2O1 (configuration not stated)	202 to 204
COCC1CN(c2ccc(C3CCC(=C(C)C)CC3)cc2)C(=O)O1 (racemic)	89 to 91
Cc1ncoc1C(O)c1ccc(F)cc1 (configuration not stated)	102 to 104
CC(C)CCNC(=O)c1ccccc1-c1ccccc1CNS(=O)(=O)c1cccc(F)c1	141
CC[C@@H](c1ccccc1)N(Cc1ccc(C(=O)OC)c(F)c1)S(=O)(=O)c1ccc(Cl)cc1	96 to 98
OC1(COc2cccc3ccccc23)CCN(Cc2ccccc2)C1 (configuration not stated)	130
O=CNCCSc1ccc2nccn2n1	148 to 151
O=C(O)CS(=O)(=O)CCCCCCn1nc(-c2ccccc2)c(-c2ccccc2)c1-c1ccccc1	154 to 155
Cc1ccc(-c2ccc(-c3ccccc3)s2)s1	102
CCCCCCCCCCCCCCc1cc(C(=O)OCC)c[nH]1	59 to 62
NC(=O)c1ccc(C(=O)C=C(c2cc(Cl)cc(Cl)c2)C(F)(F)F)cc1	156 to 160
COc1ccc(C(=O)Nc2ccccc2)c(NS(=O)(=O)c2ccc([N+](=O)[O-])cc2)c1	224 to 227
COc1ccccc1P(CC(CCCCCCO)CP(c1ccccc1OC)c1ccccc1OC)c1ccccc1OC	47 to 50
CN(C)c1ccc(C(=CC(c2ccc(N(C)C)cc2)c2ccc(N(C)C)cc2)c2ccc(N(C)C)cc2)cc1	189 to 190
C=CC(=O)OCc1cn(CCCCCCCCCCCC)nn1	50 to 52
O=C1CCN(c2c(F)cc([N+](=O)[O-])cc2F)CC1	130 to 132
CC(=O)SCC(C(=O)NC(C)C(=O)OCc1ccccc1)C1CCc2ccccc21 (configuration not stated)	95
Cc1c(NC(=O)CC(CSC(=O)[C@@H](C)NC(=O)C2CCCCC2)c2ccccc2)cccc1C(=O)O (some centres not stated)	175 to 180
O=C(NNS(=O)(=O)c1ccccc1)c1ccccc1Oc1ccccc1	149 to 150
CSCOc1ccc2c(c1)CCC1C2CCC2(C)C(=O)CCC12 (configuration not stated)	65
COc1cc([N+](=O)[O-])c(N)cc1OC(F)F	144 to 145
COc1ccc(CC2NC(=O)NC2=O)cc1CCc1ccccc1 (configuration not stated)	147 to 149

Structure (SMILES)	melting point [°C]
N#Cc1cc(C(=O)O)ccc1F	177 to 178
N#Cc1ccc(-c2cn(-c3ccc(I)cc3)c(SCCO)n2)cc1	148 to 172
NCC=Cc1ccc(NC(=O)c2ccccc2-c2ccc(C(F)(F)F)cc2)cc1	190
CCOC(=O)C(=O)Nc1cccc(N(C)C)c1C#N	124 to 126
CCN1C(=O)NC(Cc2c[nH]c3ccccc23)C1=O (configuration not stated)	167 to 170
Cn1ccnc1N1CCN(c2ccc([N+](=O)[O-])cc2)CC1	193 to 194
CSc1nc(N)c(C(N)=S)s1	192 to 195
CC(COc1ccccc1)NC(=Nc1cccnc1)NC#N (configuration not stated)	130 to 133
CCn1cc(C(=O)O)c(=O)c2cnc(N3CCN(CC(C)O)CC3)nc21 (configuration not stated)	214 to 216
CCc1c(Cl)sc2[nH]c(=O)c(=O)[nH]c12	282 to 284
CCOC(=O)c1ccc(OCCCCCCCCCCCCCOc2ccc(Cl)cc2)cc1	75 to 77
O=C(O)C1=Cc2cc(Cl)cc(Br)c2OC1C(F)(F)F (configuration not stated)	228 to 229
CNC(=O)Nc1ccc2c(c1)OC(C)(CCl)O2 (configuration not stated)	156
O=C1c2cccc3cccc(c23)C(=O)N1C1OC(CO)C(O)C(O)C1O (configuration not stated)	285 to 286
CCN(CC)c1ccc(S(=O)(=O)N2CCCC2=S)cc1	183 to 184
CC(=NOCCOc1ccc(CC2SC(=O)NC2=O)cc1)c1ccc(S(=O)(=O)c2ccncc2)cc1 (configuration not stated)	213 to 215
O=C(O)c1ccc(-c2cc(-c3ccc(C(F)(F)F)cc3)on2)cc1	> 300
Cc1cccc2nnc(-c3ccccc3)c(O)c12	215 to 217
COC(=O)Cc1ccc2nc(Nc3ccccc3)oc2c1	155 to 157
COC(=O)c1c(N)ccc([N+](=O)[O-])c1C	92 to 94
CC(C(=O)NCC(F)(F)C(F)(F)F)C(=O)NC1C(=O)N(C)c2c(F)cccc2OC1C (configuration not stated)	126 to 134
N#CC=Cc1cccc(Cl)c1F	90 to 92
